# Reference: US7135581B2, “Antiangiogenic agents” (Entremed, Inc., priority 2000, dated 2006)
# Read-outs that look alike come from different tables or passages of the source.
# Tests used:
# [1] = system: MDA-MB-231 human breast carcinoma cells; test: MDA-MB-231 in vitro cellular proliferation inhibition (BrdU); format: cell-based
# Procedure: MDA-MB-231 human breast carcinoma cells were grown in DMEM containing 10% FCS (Hyclone Laboratories, Logan Utah) and supplemented with 2 mM L-Glutamine, 100 units/ml penicillin, 100 μg/ml streptomycin (Irvine Scientific, Santa Anna, Calif.).
# MDA-MB-231 cells were plated at 5000 cells/ml in 96-well plates. After allowing the cells to attach overnight, the appropriate fresh media were applied containing differing concentrations of 2-ME2 or derivatives thereof, as described below. Drug was dissolved in DMSO (Sigma, St. Louis, Mo.) and added to the wells in a volume of 200 μl. Cells were incubated for two days at 37° C.; at 32 h BrdU was added. BrdU cell proliferation assay (a nucleotide analogue that is incorporated into DNA) was performed as described by the manufacturer (Roche). Each condition was prepared in triplicate and the experiments were carried out a minimum of two times. Results presented are means +/− SE.
# HUVEC cells = test: HUVEC in vitro cellular proliferation inhibition (BrdU, bFGF); format: cell-based, human
# Procedure: HUVEC cells were grown in EGM (Clonetics).
# HUVEC cells were plated at 5000 cells/ml in 96-well plates. After allowing the cells to attach overnight, the cells were washed with PBS and incubated in the absence of growth factor for 24 h (EBM, 2% FCS, Clonetics). Cells were treated with increasing concentrations of drug in EBM containing 2% FCS and 10 ng/ml bFGF for 48 h at 37° C. Drug preparation, volumes added and BrdU proliferation assay were performed as indicated above.
# (§1) 2-Methoxyestradiol is a potent anti-angiogenic and anti-tumor agent. In order to assess the biological activity of modifications at position 16, the anti-proliferative activity of these analogs was evaluated on human umbilical vein endothelial cells (HUVEC) and breast carcinoma cell line, MDA-MB-231 as models for the anti-angiogenic and anti-tumor activity, respectively.
# [2] = system: chick embryo chorioallantoic membrane; test: chick embryo chorioallantoic membrane (CAM) assay; format: in vivo; settings: 100 μg disk, after 48 hours
# Procedure: Anti-proliferative activity is evaluated in situ by testing the ability of an improved estradiol derivative to inhibit the proliferation of new blood vessel cells (angiogenesis). A suitable assay is the chick embryo chorioallantoic membrane (CAM) assay described by Crum et al. Science 230:1375 (1985). See also, U.S. Pat. No. 5,001,116, hereby incorporated by reference, which describes the CAM assay. Briefly, fertilized chick embryos are removed from their shell on day 3 or 4, and a methylcellulose disc containing the drug is implanted on the chorioallantoic membrane. The embryos are examined 48 hours later and, if a clear avascular zone appears around the methylcellulose disc, the diameter of that zone is measured.
# MCF7 cells = test: MCF7 estrogen-dependent proliferation assay (cell counting); format: cell-based; settings: for MCF7 Fold stimulation: estrogen-dependent proliferation
# Procedure: MCF7 cells, an estrogen dependent breast carcinoma cell line, were maintained in DMEM/F12 (1:1) containing 10% (v/v) fetal bovine serum (Hyclone Laboratories, Logan, Utah) and 1×antibiotic-antimytotic. MCF7 cells were used between passage 60 and passage 90. For MCF7 estrogen-dependent proliferation assay the cells were seeded in complete media at 20–30,000 cells/well in a 24 well plate. After allowing the cells to adhere overnight the seeding density was determined by cell counts. Cells were washed with PBS (37° C.) and starved by placing them in IMEM-phenol red free media containing 2% charcoal-dextran fetal bovine-stripped serum (Georgetown University) and 1×antibiotic-antimitotic. After 3 days of starvation, cells were treated with or without increasing concentrations of compounds, replacing the media every 2–3 days and counted after 8 or 10 days of treatment. Proliferation was measured by cell counting using a Coulter Z1 cell counter (Coulter Corporation, Hialeah, Fla.). Each condition was done in triplicate.
# [3] = system: HUVEC and MDA-MB-231 cells; test: in vitro antiproliferative screening, endothelial versus tumor cells; format: cell-based, human; settings: for antiproliferative activity in vitro (in words): cell line not specified; for difference between inhibition of tumor cells and of endothelial cell proliferation (selectivity): MDA-MB-231 versus HUVEC
# Excerpt: Compounds with no chain or with variable methylene chain lengths (1–4) were synthesized by replacing hydroxyl group at position-17 of D-ring of 2ME2 to block estrone formation or glucuronation. Similarly several analogs of 17-deoxyestrone with modification at position-2 were synthesized to block the both glucuronation and hydrolysis of the methoxy group to the hydroxyl. For these analogs data will be presented on the synthesis and preliminary in vitro screening in human umbilical vein endothelial cells (HUVEC) and breast cancer tumor MDA-MB-231 cells for antiproliferative activity, and in MCF-7 tumor cancer cells for estrogenic activity.
# as §1, with “In” for “2-Methoxyestradiol is a potent anti-angiogenic and anti-tumor agent. In”
# [4] = system: vascular endothelial cell proliferation; settings: cited from earlier work
# [5] = Table 4, dehydrogenated/substituted 2ME2 derivatives
# [6] = Table 4, dehydrogenated/substituted 2ME2 derivatives, read-out: MDA-MB-231 (IC50 μM)
# [7] = Homo sapiens, HUVEC, Table 2, 2 substituted E2 derivatives
# [8] = Homo sapiens, MDA-MB-231, Table 2, 2 substituted E2 derivatives, read-out: MDA-MB-231 (IC50 μM)
compound,measurement,setting,value
"COc1cc2c(cc1O)CC[C@@H]1[C@@H]2CC[C@]2(C)[C@@H](O)[C@@H](C)C[C@@H]12 [Table 3, Entry 3, 2-methoxy-16β-methylestra-1,3,5(10)-triene-3,17β-diol]",drop in activity in MDA-MB-231 compared to 2-methoxyestradiol,[1],about 5 fold
"COc1cc2c(cc1O)CC[C@@H]1C2=CC[C@]2(C)[C@@H](O)CC[C@@H]12 [2-methoxy-estra-1,3,5(10)9(11)-tetraene-3,17β-diol]",IC50,HUVEC cells; [5],0.25 µM
same,IC50,[1]; [6],0.45 µM
"C[C@]12CC[C@@H]3c4cc(C=O)c(O)cc4CC[C@H]3[C@@H]1CC[C@@H]2O [Table 2, Entry 3, 2-formylestra-1,3,5(10)-triene-3,17β-diol]",activity in breast tumor MDA-MB-231 cells (in words),[1],poor activity
"COc1cc2c(cc1O)CC[C@@H]1[C@@H]2CC[C@]2(C)[C@@H](O)CC[C@@H]12 [2-Methoxyestradiol, reference compound]",IC50,"HUVEC cells; Table 1, 17 substituted 2ME2 derivatives",0.66 ± 0.02 µM
same,IC50,"HUVEC cells; Table 2, 2 substituted E2 derivatives",0.66 µM
same,IC50,"HUVEC cells; Table 3, 16 substituted 2ME2 derivatives",0.66 ± 0.02 µM
same,IC50,HUVEC cells; [5],0.66 ± 0.02 µM
same,inhibition of cell mitosis and growth of new blood vessels,[2],inhibit cell mitosis and the growth of new blood vessels
same,"estrogenic activity, proliferation in estrogen dependant MCF-7 cells (in words)",MCF7 cells,not estrogenic over a wide range of concentrations
same,MCF7 Fold stimulation,MCF7 cells; Table 1,1.75
same,MCF7 Fold stimulation,MCF7 cells; Table 2,1.75
same,MCF7 Fold stimulation,MCF7 cells; Table 3,1.75
same,IC50,"[1]; Table 1, 17 substituted 2ME2 derivatives, means +/− SE, read-out: MDA-MB-231 (IC50 μM)",0.5 ± 0.05 µM
same,IC50,"[1]; Table 2, 2 substituted E2 derivatives, read-out: MDA-MB-231 (IC50 μM)",0.5 µM
same,IC50,"[1]; Table 3, 16 substituted 2ME2 derivatives, read-out: MDA-MB-231 (IC50 μM)",0.5 ± 0.05 µM
same,IC50,[1]; [6],0.5 ± 0.05 µM
"CC(=O)c1cc2c(cc1O)CC[C@@H]1[C@@H]2CC[C@]2(C)[C@@H](O)CC[C@@H]12 [Table 2, Entry 2, 2-acetylestra-1,3,5(10)-triene-3,17β-diol]",antiproliferative activity in HUVEC / endothelial cells (in words),HUVEC cells,poor activity
same,activity in breast tumor MDA-MB-231 cells (in words),[1],good activity
"COc1cc2c(cc1O)CC[C@@H]1[C@@H]2CC[C@]2(C)CCC[C@@H]12 [Table 1, Entry 3, 2-methoxyestra-1,3,5(10)-triene-3-ol]",antiproliferative activity in vitro (in words),[3]; listed as 2-Methoxy-17-deoxyestrone,equal or better antiproliferative activity than 2ME2
same,antiproliferative activity in vitro (in words),[3]; listed as dehydroxy derivative,in vitro profile analogous to 2-methoxyestradiol
"COc1cc2c(cc1O)CC[C@@H]1[C@@H]2CC[C@]2(C)[C@@H](C)CC[C@@H]12 [Table 1, Entry 8, 2-methoxy-17β-methylestra-1,3,5(10)-triene-3-ol]",antiproliferative activity in vitro (in words),[3],equal or better antiproliferative activity than 2ME2
"C[C@@]12CCC[C@H]1[C@@H]1CCc3cc(O)ccc3[C@H]1CC2 [Table 2, Entry 19, estra-1,3,5(10)-triene-3-ol]",IC50,HUVEC cells; [7],8.66 µM
same,IC50,[1]; [8],33.9 µM
"CC[C@H]1CC[C@H]2[C@@H]3CCc4cc(O)c(OC)cc4[C@H]3CC[C@]12C [Table 1, Entry 13, 2-methoxy-17β-ethylestra-1,3,5(10)-triene-3-ol]",antiproliferative activity in vitro (in words),[3],equal or better antiproliferative activity than 2ME2
"CCC[C@@H]1C[C@H]2[C@@H]3CCc4cc(O)c(OC)cc4[C@H]3CC[C@]2(C)[C@H]1O [Table 3, Entry 7, 2-methoxy-16α-propaneestra-1,3,5(10)-triene-3,17β-diol]",antiproliferative activity in HUVEC / endothelial cells (in words),HUVEC cells,good activity
same,difference between inhibition of tumor cells and of endothelial cell proliferation (selectivity),[3],more than ten-fold less active
"C[C@]12CC[C@@H]3c4cc(N=[N+]=[N-])c(O)cc4CC[C@H]3[C@@H]1CC[C@@H]2O [Table 2, Entry 17, 2-Azidoestra1,3,5(10)-triene-3,17β-diol]",antiproliferative activity in vitro (in words),[3],retained considerable antiproliferative activity
same,IC50,"[1]; Homo sapiens, MDA-MB-231, read-out: MDA-MB-231 (IC50 μM)",13.3 µM
CO[C@@H]1[C@H](OC(=O)NC(=O)CCl)CC[C@]2(CO2)[C@H]1[C@@]1(C)O[C@@H]1CC=C(C)C [AGM-1470],half-maximal inhibition of vascular endothelial cell proliferation at lower concentration than tumor cell proliferation,[4],4 logs
"COc1cc2c(cc1O)CC[C@@H]1[C@@H]2CC[C@]2(C)[C@@H](O)[C@H](C)C[C@@H]12 [Table 3, Entry 2, 2-methoxy-16α-methylestra-1,3,5(10)-triene-3,17β-diol]",activity in MDA-MB-231 compared to 2-methoxyestradiol (in words),[1],better activity than 2-methoxyestradiol
"CCC1C[C@H]2[C@@H]3CCc4cc(O)c(OC)cc4[C@H]3CC[C@]2(C)[C@H]1O (stereo partly drawn) [Table 3, Entry 4, 2-methoxy-16-ethylestra-1,3,5,(10)-triene-3,17β-diol]",inhibition of HUVEC cell proliferation compared to 2-methoxyestradiol (in words),HUVEC cells,about equipotent to 2-methoxyestradiol
same,drop in activity in MDA-MB-231 compared to 2-methoxyestradiol,[1],~3 fold
"CCOc1cc2c(cc1O)CC[C@@H]1[C@@H]2CC[C@]2(C)[C@@H](O)CC[C@@H]12 [Table 2, Entry 18, 2-ethoxyestra-1,3,5(10)-triene3,17β-diol]",IC50,HUVEC cells; [7],0.06 µM
same,IC50,[1]; [8],0.179 µM
COc1cc2c(cc1OC(C)=O)CCC1C2CC[C@@]2(C)C1CC[C@@H]2OC(C)=O (stereo partly drawn) [Entry 6],IC50,"HUVEC cells; Homo sapiens, HUVEC, Table 1, 17 substituted 2ME2 derivatives",3.6 ± 2 µM
same,IC50,"[1]; Homo sapiens, MDA-MB-231, Table 1, 17 substituted 2ME2 derivatives, means +/− SE, read-out: MDA-MB-231 (IC50 μM)",0.59 ± 0.15 µM
"C[C@]12CC[C@@H]3c4cc(CO)c(O)cc4CC[C@H]3[C@@H]1CC[C@@H]2O [Table 2, Entry 4, 2-(hydroxymethyl)estra-1,3,5(10)-triene-3,17β-diol]",activity in breast tumor MDA-MB-231 cells (in words),[1],poor activity
"16β-(hydroxymethyl)estra-1,3,5(10)-triene-3,17β-diol [Table 3, Entry 6]",difference between inhibition of tumor cells and of endothelial cell proliferation (selectivity),[3],10 fold
